Laboratory results reported in US12409151B2, “Transdermal device comprising NSAID or analgesic prodrug molecules” (Remedy Diagnostics LLC, priority 2019, dated 2025).
In brackets after ≈: the same amount, converted by molar mass. Several values for one entry are separate records, joined by “and”; a condition that tells them apart may be missing. Equal entries are not always repeated. Where two headings read alike, the source gives them in different places.

Key:
[1] = physchem; details: for solubility: organic solvent or mixture, thermodynamic from solid, solubility in F1
Procedure: This example illustrates the solubilities of APAP, IBU, Pro-APAP, and Pro-IBU in vehicle formulations F1 and F2.
Formulation F1 consisted of 50% Polyethylene Glycol (MW grade: 400) in 50% Ethanol. 50.2 mg of IBU was dissolved in 10.0 mL of F1, to produce a solution with a concentration of 5.02 mg/mL.

[2] = cited from earlier work
[3] = Stability of prodrugs in vehicle F3, monitored visually; assay type: physicochemical
Procedure: This example evaluated the stability of each of the prodrugs in vehicle F3.
A 50 mg/ml solution of Pro-APAP in F3 was prepared and monitored visually for three months to check for stability. […] was determined to be stable in this solution for the duration of the experiment.
A 70 mg/ml solution of Pro-IBU in F3 was prepared and monitored visually for three months to check for stability. […] was determined to be stable in this solution for the duration of the experiment.

[4] = Skin permeation across excised human skin (Franz cell), UV-Vis of receptor media; assay type: in vitro ADME
Procedure: Skin Permeation Studies: Upon completion of the solubility and stability studies, the ability of the compound to permeate the skin in the selected solvent/vehicle was tested and the rate of permeation was measured to determine whether the compound permeated to an extent relevant for clinical use in a transdermal patch. Specifically, 4-acetoxyacetanilide was assessed for skin permeation across human skin over a 24 h time period.
Methods: For the skin permeation studies, a sample chamber containing 5 mL of 50% Polyethylene glycol 400 in ethanol was used as the receptor media. An initial sample of receptor media was drawn at the onset of testing to test for interferents and subsequent samples of 1 mL each were taken at the following time-points: 0.5 h, 1 h, 2 h, 5 h, 8 h, and 24 h. These samples were analyzed via UV-Vis spectroscopy (Tecan m200 Infinity Multi-Well Plate Reader) for absorbance at 246 nm and were blanked relative to that of the empty vehicle.
Materials: 4-acetoxyacetanilide (Pro-APAP), Formulation Solvent: 50% DMSO in Polyethylene Glycol 400, and Receptor Media: 50% Ethanol in Polyethylene Glycol 400 at 37° C.
Skin permeation studies: Upon completion of the solubility and stability studies, the ability of the pro-IBU compound to permeate the skin in the selected solvent/vehicle was tested and the rate of permeation was measured to determine whether the compound will permeate to an extent relevant for clinical use in a transdermal patch. Specifically, ethyl 2-(4-isobutylphenyl)-propanoate was assessed for skin permeation across human skin over a 24 h time period.
Materials: ethyl 2-(4-isobutylphenyl)-propanoate (pro-IBU), Formulation Solvent: 50% DMSO in Polyethylene Glycol 400, Receptor Media: 50% Ethanol in Polyethylene Glycol 400 at 37° C.

[5] = Solutions in permeation enhanced vehicle formulation F3; assay type: physicochemical; details: F3: 33.3% DMSO and 66.6% ethanol; dissolved in neat ethanol, then DMSO added
Procedure: A permeation enhanced vehicle formulation F3 was developed consisting of 33.3% dimethylsulfoxide (DMSO) and 66.6% ethanol. A solution of Pro-APAP in F3 was prepared by first dissolving 30.5 mg of Pro-APAP into 2 mL neat ethanol, and then slowly adding 1 mL DMSO to reach a 3 mL 10.1 mg/mL solution with a final DMSO concentration of 33.3%.
A solution of Pro-IBU in F3 was prepared by first dissolving 67.0 mg of Pro-IBU into 1 mL neat ethanol, and then slowly adding 0.50 mL DMSO to reach 1.5 mL of a 44.6 mg/mL solution with a final DMSO concentration of 33.3%.

[6] = 5 Hr, cumulative mass into receptor media, excised human skin, Franz cell 0.64 cm^2, 37° C.
[7] = 8 Hr, cumulative mass into receptor media, excised human skin, Franz cell 0.64 cm^2, 37° C.
[8] = 24 Hr, cumulative mass into receptor media, excised human skin, Franz cell 0.64 cm^2, 37° C.
[9] = 24 h, excised human skin, Franz cell, 37° C., 50% DMSO in PEG 400

CC(=O)Nc1ccc(O)cc1 [APAP, acetaminophen, reference compound]
solubility [1]: 12.8 mg/mL (≈ 84.7 mM)

CC(=O)Nc1ccc(OC(C)=O)cc1 [Pro-APAP, 4-acetoxyacetanilide]
solubility ([2]; in chloroform, DMSO, and methanol): slightly soluble
solubility in F1 [1]: 12.5 mg/mL (≈ 64.7 mM)
stability in solution in F3 ([3]; 50 mg/ml solution in F3, monitored visually for three months): stable
stability in solution in F3 ([3]; 70 mg/ml solution of Pro-IBU in F3, monitored visually for three months): stable
Maximum (mass released) [4, 6]: 10.8 µg and 10.88 µg
Minimum (mass released) [4, 6]: 4.73 µg
Average Mass Released ([4]; 5 Hr, cumulative mass into receptor media, excised human skin, Franz cell 0.64 cm^2, 37° C., 50% DMSO in PEG 400): 7.15 µg and 7.16 µg
Maximum (mass released) [4, 7]: 15.34 µg
Minimum (mass released) [4, 7]: 10.04 µg
Average Mass Released ([4]; 8 Hr, cumulative mass into receptor media, excised human skin, Franz cell 0.64 cm^2, 37° C., 50% DMSO in PEG 400): 12.20 µg
Maximum (mass released) [4, 8]: 91.94 µg and 91.95 µg
Minimum (mass released) [4, 8]: 55.45 µg
Average Mass Released ([4]; 24 Hr, cumulative mass into receptor media, excised human skin, Franz cell 0.64 cm^2, 37° C., 50% DMSO in PEG 400): 76.15 µg and 76.16 µg
concentration of Pro-APAP in receptor media, maximum [4, 9]: 15.78 µg/mL
concentration of Pro-APAP in receptor media, minimum [4, 9]: 8.76 µg/mL
concentration of Pro-APAP in receptor media, average ([4]; 24 h, excised human skin, Franz cell, 37° C., formulation solvent 50% DMSO in PEG 400, receptor 50% ethanol in PEG 400, blank subtracted): 12.36 µg/mL
permeability (permeation) coefficient range ([4]; calculated, human skin, 24 h study, 50% DMSO in PEG 400): 3.61-5.98 μg/h/cm^2
total cumulative amount permeated ([4]; human skin over 24 h, 50% DMSO in PEG 400): around 80 μg per 0.66 cm^2
concentration of solution prepared in F3 [5]: 10100 µg/mL

CCOC(=O)C(C)c1ccc(CC(C)C)cc1 (stereo not drawn) [Pro-IBU, ethyl 2-(4-isobutylphenyl)-propanoate]
solubility ([2]; in DMSO and ethanol): soluble
solubility [1]: ≥ 24.9 mg/mL
permeability (permeation) coefficient range [4]: 33.32-65.47 μg/h/cm^2
lag time ([4]; human): 2 to 5 h
Average Mass Released ([4]; human, 5 h): 18.06 µg
Maximum (mass released) ([4]; human, 5 h): 54.17 µg
Minimum (mass released) ([4]; human, 5 h): 0.00 µg
mass detected in one of the wells ([4]; human, 5 h): 54 µg
Average Mass Released ([4]; human, 8 h): 25.50 µg
Maximum (mass released) ([4]; human, 8 h): 70.83 µg
Minimum (mass released) ([4]; human, 8 h): 0.00 µg
concentration of Pro-IBU in the receptor media ([4]; human, 24 h): ~200 µg/mL
concentration of solution prepared in F3 [5]: 44600 µg/mL
